Data on nine molecules can be found in patent publication US8536342B2, “Process for producing thiabenzoazulene-propionic acid derivative” (Nippon Zoki Pharmaceutical Co., Ltd., priority 2009, dated 2013).

The target in one series is T1, intracerebral receptor (Mus musculus, UniProt P70174).
T1 construct: from tissue; host or cells: mouse brain
Description: intracerebral receptor binding test by oral administration to mice. Type of series: in vivo.

A further series concerns the target histamine H1 receptor (Homo sapiens, UniProt P35367). Description: antagonistic action to histamine H1 receptor.

Sequence of histamine H1 receptor (P35367 whole entry, species assumed): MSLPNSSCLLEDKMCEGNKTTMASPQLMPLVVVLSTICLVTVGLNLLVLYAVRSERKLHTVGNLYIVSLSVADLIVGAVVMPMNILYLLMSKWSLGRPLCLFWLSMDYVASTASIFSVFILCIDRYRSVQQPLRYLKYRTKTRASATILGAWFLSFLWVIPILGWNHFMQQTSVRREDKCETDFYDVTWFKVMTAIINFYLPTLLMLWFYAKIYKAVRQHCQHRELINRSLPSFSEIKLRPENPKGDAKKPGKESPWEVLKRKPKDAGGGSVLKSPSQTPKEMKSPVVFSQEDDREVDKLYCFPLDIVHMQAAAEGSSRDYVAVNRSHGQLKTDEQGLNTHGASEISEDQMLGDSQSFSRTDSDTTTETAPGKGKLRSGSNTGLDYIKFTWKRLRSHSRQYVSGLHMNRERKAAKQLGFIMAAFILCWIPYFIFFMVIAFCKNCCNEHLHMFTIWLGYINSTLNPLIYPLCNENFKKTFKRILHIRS
T1 sequence (P70174 whole entry): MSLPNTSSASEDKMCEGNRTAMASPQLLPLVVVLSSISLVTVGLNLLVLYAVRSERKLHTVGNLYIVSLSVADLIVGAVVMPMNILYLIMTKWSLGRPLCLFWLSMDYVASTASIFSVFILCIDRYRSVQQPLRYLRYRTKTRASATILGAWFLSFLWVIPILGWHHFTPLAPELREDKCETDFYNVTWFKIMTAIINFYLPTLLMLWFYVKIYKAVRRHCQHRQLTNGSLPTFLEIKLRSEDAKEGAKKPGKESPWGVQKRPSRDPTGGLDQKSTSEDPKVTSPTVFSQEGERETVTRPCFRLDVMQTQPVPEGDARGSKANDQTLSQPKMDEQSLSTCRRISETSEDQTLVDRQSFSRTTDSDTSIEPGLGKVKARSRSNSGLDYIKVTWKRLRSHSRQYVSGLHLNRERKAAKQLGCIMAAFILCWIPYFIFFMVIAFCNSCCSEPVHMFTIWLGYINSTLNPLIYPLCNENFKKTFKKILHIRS

Regarding `CC(C)(C)OC(=O)N1CCC(=C2c3ccccc3C=Cc3sc(CCC(=O)O)cc32)CC1` [Compound 7, 3-[4-(1-tert-butoxycarbonylpiperidin-4-ylidene)-4H-1-thiabenzo[f]azulen-2-yl]propionic acid], the melting point was 172 °C (dec.).

On to `CC(C)(C)OC(=O)N1CCC(=C2c3ccccc3CCc3sc(C=CC(=O)O)cc32)CC1` [Compound 6, 3-[4-(1-tert-butoxycarbonylpiperidin-4-ylidene)-9,10-dihydro-4H-1-thiabenzo[f]azulen-2-yl]acrylic acid], for which the melting point is 186 °C (dec.). In the case of `O=C(O)CCc1cc2c(s1)C=Cc1ccccc1C2=C1CCNCC1` [Compound 5, 3-(4-piperidin-4-ylidene-4H-1-thiabenzo-[f]azulen-2-yl)propionic acid], the melting point was 254 °C (dec.). At intracerebral receptor, the intracerebral transmigration result is listed as “low intracerebral transmigration”. Moreover, on histamine H1 receptor, the “antagonistic action to histamine H1 receptor” value was “excellent antagonistic action” and the antihistaminic action entry is “excellent antihistaminic action”.

On to `CCOC(=O)C=Cc1cc2c(s1)CCc1ccccc1C2=C1CCN(C(=O)OCC)CC1` [Compound 8, ethyl 4-[2-(2-ethoxycarbonylvinyl)-9,10-dihydro-1-thiabenzo[f]azulen-4-ylidene]piperidine-1-carboxylate], for which the melting point was in the range of 90 to 93 °C. Same read-out and setting: next, `CCOC(=O)N1CCC(=C2c3ccccc3CCc3sc(C=O)cc32)CC1` [Compound 2, ethyl 4-(2-formyl-9,10-dihydro-1-thia-benzo[f]azulen-4-ylidene)piperidine-1-carboxylate]: 146 to 149 °C; `O=C(O)C=Cc1cc2c(s1)CCc1ccccc1C2=C1CCNCC1` [Compound 4, 3-(4-piperidin-4-ylidene-9,10-dihydro-4H-1-thiabenzo[f]azulen-2-yl)acrylic acid]: 269 to 272 °C (dec.). On to `CCOC(=O)N1CCC(=C2c3ccccc3CCc3sc(C=CC(=O)O)cc32)CC1` [Compound 3, 3-[4-(1-ethoxycarbonylpiperidin-4-ylidene)-9,10-dihydro-4H-1-thiabenzo[f]azulen-2-yl]acrylic acid], for which the melting point is 228 °C (dec.). `CCOC(=O)N1CCC(=C2c3ccccc3CCc3sccc32)CC1` [Compound 1, ethyl 4-(9,10-dihydro-1-thiabenzo[f]-azulen-4-ylidene)piperidine-1-carboxylate] showed a melting point of 110 to 113 °C. The same measure, in the same setting: next, `CN1CCC(=C2c3ccccc3CCc3sc(Br)cc32)CC1` [Compound 11, 4-(2-bromo-9,10-dihydro-1-thiabenzo[f]-azulen-4-ylidene)-1-methylpiperidine]: 141 to 142 °C.
